Data from ChEMBL document CHEMBL1145656, “Production of cytotoxic canthin-6-one alkaloids by Ailanthus altissima plant cell cultures” (J Nat Prod, 1983).
Converted amounts (≈) assume the structure as drawn.

Experiment: Cytotoxicity against GPK cells by [3H]thymidine incorporation assay
Assay type: functional, cell-based
Details: Cavia porcellus

Row | Structure (SMILES) | IC50
1 | O=c1ccc2c3c(cc[n+]2[O-])c2ccccc2n13 | 4.21 µg/mL (≈ 17.8 µM)
2 | COc1cnc2ccc(=O)n3c4ccccc4c1c23 | 5.76 µg/mL (≈ 23 µM)
3 | COc1cc2nccc3c4ccccc4n(c1=O)c23 [5-METHOXYCANTHINONE] | 5.44 µg/mL (≈ 21.7 µM)
4 | O=c1ccc2nccc3c4ccccc4n1c23 [CANTHIN-6-ONE] | 1.11 µg/mL (≈ 5.04 µM)
